Reference: US20100120715A1, “BETA-LACTAMASE INHIBITORS” (priority 2007, published 2010)
Where two headings read alike, the source gives them in different places.

Tests used:
[1] = tested on: K. pneumoniae expressing the Class A ESBL CTX-M-15; assay: microbe, parasite or virus in culture; format: cell-based; conditions: in the presence of fixed 8 μg/mL Ceftazidime
[2] = molecular target: T1, Class A carbapenemase KPC-2 (Klebsiella pneumoniae, UniProt Q9F663); assay: β-lactamase enzyme inhibition (nitrocefin hydrolysis), KPC-2; format: biochemical; conditions: purified enzyme; nitrocefin 100 μM, PBS pH 7.0; read-out: KPC-2 IC50 Range
T1 construct: made in house; host or cells: E. coli BL21(DE3)
Method in brief: (§1)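 Native untagged enzymes were expressed in E. coli BL21(DE3) and purified by cation exchange and gel filtration. Compound series (100–0.005 μM in PBS pH 7.0, before addition of an equal enzyme volume) were preincubated with enzyme 10 min at 37°C. Nitrocefin (100 μM final) hydrolysis was read kinetically at 486 nm for 10 min, and IC50 was taken as 50% reduction of initial rate versus no-inhibitor wells.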

[3] = tested on: K. pneumoniae expressing the Class A carbapenemase KPC-2; assay: microbe, parasite or virus in culture; conditions: in the presence of fixed 8 μg/mL Ceftazidime
Class C P99 AmpC = molecular target: T2, Class C P99 AmpC (Enterobacter cloacae, UniProt P05364); format: biochemical; conditions: purified enzyme; nitrocefin 100 μM, PBS pH 7.0; read-out: P99 AmpC IC50 Range
T2 construct: made in house; host or cells: E. coli BL21(DE3)
Method in brief: as §1

Class A ESBL CTXM-15 = molecular target: T3, Class A ESBL CTXM-15 (Escherichia coli, UniProt Q9EXV5); assay: β-lactamase enzyme inhibition (nitrocefin hydrolysis), CTXM-15; format: biochemical; conditions: purified enzyme; nitrocefin 100 μM, PBS pH 7.0; read-out: CTXM-15 IC50 Range
T3 construct: made in house; host or cells: E. coli BL21(DE3)
Method in brief: as §1

Class A ESBL SHV-5 = molecular target: T4, Class A ESBL SHV-5 (Klebsiella pneumoniae, UniProt P0A3M1); format: biochemical, E. coli; conditions: nitrocefin 100 μM, PBS pH 7.0, read-out: SHV-5 IC50 Range
T4 construct: made in house; host or cells: E. coli BL21(DE3) for purified enzyme; E. coli cells containing SHV-5 for extracts

[4] = tested on: E. coli expressing the Class A ESBL SHV-5; assay: microbe, parasite or virus in culture; format: cell-based; conditions: in the presence of fixed 8 μg/mL Ceftazidime
Text: (§2) To determine the ability of test compounds to potentiate the inhibition of the growth of bacterial strains producing beta-lactamase enzymes, classic cell based screening assays were employed. Four bacteria strains producing beta-lactamase enzymes were used: K. pneumoniae expressing the Class A Extended Spectrum Beta-Lactamase (ESBL) CTX-M-15, E. coli expressing the Class A ESBL SHV-5, E. cloacae expressing the Class C P99+, and K. pneumoniae expressing the Class A carbapenemase KPC-2. In order to evaluate the ability of test compounds to inhibit beta-lactamase activity, Applicants used a modification of the broth microdilution assay. The assay was conducted in Cation Adjusted Mueller Hinton Broth (CAMHB, BD # 212322, BD Diagnostic Systems, Sparks, Md.). Bacteria strains were grown for 3-5 hours in CAMBH broth. All four strains were grown in presence of 50 μg/mL ampicillin to ensure resistance is maintained. In the meantime, test compounds were diluted in DMSO to a 0.1 mg/mL stock. The compounds were added to a microtiter plate and were diluted in 2-fold serial dilutions in CAMHB in a final concentration range of 8 μg/mL to 0.015 μg/ml. An overlay of CAMHB containing a cephalosporin was added to the compounds at a final static concentration of 8 μg/ml. […] Each of these compound plates are made in quadruplicate, one for each bacteria strain. In addition to the titration of test compounds the MICs of a panel of cephalosporins is also tested to ensure the strains are behaving consistently from test to test. Once the test compound and cephalosporin are added the plates can be inoculated. Inocula are conducted according to CLSI broth microdilution method. After inoculation the plates are incubated for 16-20 hours at 37° C. then the Minimal Inhibitory Concentration (MIC) of the test compound is determined visually.

[5] = tested on: E. cloacae expressing the Class C P99+ AmpC; assay: microbe, parasite or virus in culture; format: cell-based; conditions: in the presence of fixed 8 μg/mL Ceftazidime
Text: as §2

[6] = cellular extracts of E. coli containing SHV-5 (Examples 2-30)

T4 sequence (P0A3M1 22-286): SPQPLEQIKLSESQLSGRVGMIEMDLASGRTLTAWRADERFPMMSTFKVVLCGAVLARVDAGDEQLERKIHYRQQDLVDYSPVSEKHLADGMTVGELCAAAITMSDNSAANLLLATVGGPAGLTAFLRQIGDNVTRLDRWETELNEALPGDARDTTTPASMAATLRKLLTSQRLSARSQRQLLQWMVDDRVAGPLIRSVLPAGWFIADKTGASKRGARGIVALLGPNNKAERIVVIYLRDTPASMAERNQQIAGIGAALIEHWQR
T3 sequence (Q9EXV5 entry or part of it): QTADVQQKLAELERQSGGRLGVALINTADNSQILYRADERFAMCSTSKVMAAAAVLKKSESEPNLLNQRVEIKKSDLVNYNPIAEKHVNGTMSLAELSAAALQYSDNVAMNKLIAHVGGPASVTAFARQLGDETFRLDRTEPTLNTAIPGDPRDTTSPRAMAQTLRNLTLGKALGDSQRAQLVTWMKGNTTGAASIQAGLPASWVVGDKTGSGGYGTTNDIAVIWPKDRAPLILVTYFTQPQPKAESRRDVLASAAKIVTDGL
T1 sequence (Q9F663 25-293 limits assumed): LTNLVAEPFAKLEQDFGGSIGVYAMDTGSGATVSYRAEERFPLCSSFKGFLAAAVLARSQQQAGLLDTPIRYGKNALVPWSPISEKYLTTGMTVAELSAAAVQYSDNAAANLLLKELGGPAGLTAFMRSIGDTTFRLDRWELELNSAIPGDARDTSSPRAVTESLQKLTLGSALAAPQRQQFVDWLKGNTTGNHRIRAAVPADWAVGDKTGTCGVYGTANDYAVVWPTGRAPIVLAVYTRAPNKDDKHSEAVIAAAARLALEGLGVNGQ
T2 sequence (P05364 21-381): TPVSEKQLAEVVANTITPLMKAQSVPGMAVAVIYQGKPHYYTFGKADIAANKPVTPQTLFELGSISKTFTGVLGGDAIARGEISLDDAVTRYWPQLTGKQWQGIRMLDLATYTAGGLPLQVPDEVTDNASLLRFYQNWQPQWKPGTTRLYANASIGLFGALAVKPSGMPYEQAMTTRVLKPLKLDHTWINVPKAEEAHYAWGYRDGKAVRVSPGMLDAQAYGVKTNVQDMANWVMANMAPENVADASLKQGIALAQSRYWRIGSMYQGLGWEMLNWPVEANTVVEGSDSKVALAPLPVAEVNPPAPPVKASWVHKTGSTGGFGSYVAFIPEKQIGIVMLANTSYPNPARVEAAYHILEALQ

In the case of O=C(Cc1cccs1)N[C@@H](Cc1cccc(C(=O)O)c1O)B(O)O [Example 1, (1R)-1-(2-thiophene-2-yl-acetylamino)-2-(2-hydroxy-3-carboxyphenyl)ethyl-1-boronic acid], the “MIC of example compound, K. pneumoniae CTX-M-15 + 8 μg/mL CAZ” value (“MIC … K. pneumoniae CTX-M-15 + 8 μg/mL CAZ” below) [1] is reported as “C (C represents an MIC of <1 μg/mL)”, the IC50 [2] is reported as less than 10 nM and the “MIC of example compound, K. pneumoniae KPC-2 + 8 μg/mL CAZ” value (“MIC … K. pneumoniae KPC-2 + 8 μg/mL CAZ” below) [3] is reported as “C (C represents an MIC of <1 μg/mL)”. The IC50 (Class C P99 AmpC) was less than 10 nM, the IC50 (Class A ESBL CTXM-15) was less than 10 nM and the IC50 (Class A ESBL SHV-5; purified beta-lactamase enzyme (Examples 1 and 31-64)) was less than 10 nM. For the same molecule, the “MIC of example compound, E. coli SHV-5 + 8 μg/mL CAZ” value (“MIC … E. coli SHV-5 + 8 μg/mL CAZ” for short) [4] was “C (C represents an MIC of <1 μg/mL)”.
With O=C(Cc1cccs1)N[C@@H](Cc1ccc(C(=O)O)cc1O)B(O)O [Example 2, (1R)-1-(2-thiophene-2-yl-acetylamino)-2-(2-hydroxy-4-carboxyphenyl)ethyl-1-boronic acid] the IC50 (Class C P99 AmpC) was 100 to 1000 nM, the IC50 (Class A ESBL CTXM-15) was 100 to 1000 nM and the IC50 (Class A ESBL SHV-5; [6]) was 10 to 100 nM. For the same molecule, the “MIC of example compound, E. cloacae P99 AmpC + 8 μg/mL CAZ” value [5] was “A (A represents an MIC >8 μg/mL)”.
For O=C(O)COc1cccc(CC(=O)N[C@@H](Cc2cccc(C(=O)O)c2O)B(O)O)c1 [Example 7, (1R)-1-[3-(carboxymethoxy)-phenyl]acetylamino-(3-carboxy-2-hydroxy)benzyl-methylboronic acid], the “MIC … K. pneumoniae CTX-M-15 + 8 μg/mL CAZ” value [1] was “C (C represents an MIC of <1 μg/mL)”, the “MIC … K. pneumoniae KPC-2 + 8 μg/mL CAZ” value [3] was “C (C represents an MIC of <1 μg/mL)” and the IC50 (Class C P99 AmpC) was less than 10 nM. For the same molecule, the IC50 (Class A ESBL CTXM-15) was less than 10 nM, the IC50 (Class A ESBL SHV-5; [6]) was less than 10 nM and the “MIC … E. coli SHV-5 + 8 μg/mL CAZ” value [4] was “C (C represents an MIC of <1 μg/mL)”.
With O=C(Cc1cc(Br)cs1)N[C@@H](Cc1cccc(C(=O)O)c1O)B(O)O [Example 9, (1R)-1-(2-(4-bromo-thiophen-2-nyl)acetylamino)-2-(2-hydroxy-3-carboxyphenyl)ethyl-1-boronic acid] the “MIC … K. pneumoniae CTX-M-15 + 8 μg/mL CAZ” value [1] was “C (C represents an MIC of <1 μg/mL)”, the IC50 [2] was 10 to 100 nM and the “MIC … K. pneumoniae KPC-2 + 8 μg/mL CAZ” value [3] was “C (C represents an MIC of <1 μg/mL)”. The IC50 (Class C P99 AmpC) was less than 10 nM, the IC50 (Class A ESBL CTXM-15) was less than 10 nM and the IC50 (Class A ESBL SHV-5; [6]) was less than 10 nM. The “MIC … E. coli SHV-5 + 8 μg/mL CAZ” value [4] was “C (C represents an MIC of <1 μg/mL)”.
O=C(CO)N[C@@H](Cc1cccc(C(=O)O)c1O)B(O)O [Example 19, (1R)-1-Hydroxyacetylamino-1-(3-carboxy-2-hydroxy)benzyl-methyl boronic acid] was tested, and the “MIC … K. pneumoniae CTX-M-15 + 8 μg/mL CAZ” value [1] was “C (C represents an MIC of <1 μg/mL)”, the IC50 [2] was 10 to 100 nM and the “MIC … K. pneumoniae KPC-2 + 8 μg/mL CAZ” value [3] was “C (C represents an MIC of <1 μg/mL)”. The IC50 (Class C P99 AmpC) was 100 to 1000 nM, the IC50 (Class A ESBL CTXM-15) was 10 to 100 nM and the IC50 (Class A ESBL SHV-5; [6]) was 100 to 1000 nM. For the same molecule, the “MIC … E. coli SHV-5 + 8 μg/mL CAZ” value [4] was “A (A represents an MIC >8 μg/mL)”.
CCCCCC(=O)N[C@@H](Cc1cccc(C(=O)O)c1O)B(O)O [Example 21, (1R)-1-Hexanoylamino-(3-carboxy-2-hydroxy)benzyl-methylboronic acid] was tested, and the “MIC … K. pneumoniae CTX-M-15 + 8 μg/mL CAZ” value [1] was “C (C represents an MIC of <1 μg/mL)”, the IC50 [2] was less than 10 nM and the “MIC … K. pneumoniae KPC-2 + 8 μg/mL CAZ” value [3] was “C (C represents an MIC of <1 μg/mL)”. For the same molecule, the IC50 (Class C P99 AmpC) was less than 10 nM, the IC50 (Class A ESBL CTXM-15) was less than 10 nM and the IC50 (Class A ESBL SHV-5; [6]) was less than 10 nM. The “MIC … E. coli SHV-5 + 8 μg/mL CAZ” value [4] was “C (C represents an MIC of <1 μg/mL)”.
With COc1cccc(C(=O)N[C@@H](Cc2cccc(C(=O)O)c2O)B(O)O)c1 [Example 29, (1R)-1-(3-methoxybenzoylamino)-2-(2-hydroxy-3-carboxyphenyl)ethyl-1-boronic acid] the “MIC … K. pneumoniae CTX-M-15 + 8 μg/mL CAZ” value [1] was “C (C represents an MIC of <1 μg/mL)”, the IC50 [2] was less than 10 nM and the “MIC … K. pneumoniae KPC-2 + 8 μg/mL CAZ” value [3] was “C (C represents an MIC of <1 μg/mL)”. It also gave an IC50 (Class C P99 AmpC) of less than 10 nM, an IC50 (Class A ESBL CTXM-15) of less than 10 nM and an IC50 (Class A ESBL SHV-5; [6]) of 10 to 100 nM. For the same molecule, the “MIC … E. coli SHV-5 + 8 μg/mL CAZ” value [4] was “C (C represents an MIC of <1 μg/mL)”.
